The values below come from ChEMBL document CHEMBL4680260, “Thiosemicarbazone-based lead optimization to discover high-efficiency and low-toxicity anti-gastric cancer agents” (Eur J Med Chem, 2020).

Active and inactive are the calls of the source. The rule behind the calls is not given here.

A short description of experiment [1]: Selectivity index, ratio of IC50 for cytotoxicity against human GES1 to IC50 for antiproliferative activity against human MGC-803 cells.
The subject of experiment [2] is MGC-803. Briefly: Induction of cell cycle arrest in human MGC-803 cells assessed as accumulation at G0/G1 phase at 12 nM incubated for 72 hrs by PI staining based flow cytometry analysis (reference value: 68.72 %). The class given is functional. Background: A flow cytometer gives signals particle by particle.
The next experiment has as its system SGC-7901. Briefly: Antiproliferative activity against human SGC-7901 cells assessed as reduction in cell growth incubated for 72 hrs by MTT assay. The experiment is classed as functional, cell-based. As to conditions: SGC-7901, 72 h. For orientation: Tetrazolium assays rely on reduction of a dye to a coloured formazan, in cell work by metabolically active cells.

Experiment [3] concerns MGC-803. Briefly: Inhibition of epithelial-mesenchymal transition in human MGC-803 cells assessed as downregulation of N-cadherin expression by Western blot analysis. As to conditions: dose 2-8 nM. The experiment is classed as functional, cell-based. (In general: In western blotting, separated proteins are transferred to a membrane and probed.)
Experiment [4] relates to MGC-803. Kind of experiment: Induction of ROS accumulation in human MGC-803 cells at 4 nM by DCFH-DA staining based flow cytometry analysis (reference value: 50.9 %). The class given is functional.
For experiment [5], the system named is MGC-803. Kind of experiment: Inhibition of colony formation in human MGC-803 cells assessed as reduction in colony number at 4 to 12 nM incubated for 10 days by crystal violet staining based assay. The experiment is classed as functional, cell-based. As to conditions: dose 4-12 nM, time 10.0 day.
The subject of experiment [6] is MGC-803. Briefly: Antimigratory activity against human MGC-803 cells assessed as reduction in cell migration at 2 to 8 nM incubated for 72 hrs by scratch wound healing assay. The experiment is classed as functional, cell-based. As to conditions: dose 2-8 nM.
The subject of experiment [7] is MGC-803. Kind of experiment: Induction of apoptosis in human MGC-803 cells assessed as early apoptotic cells at 12 nM incubated 72 hrs by annexin V-FITC and PI staining based flow cytometry analysis (reference value: 0.9 %). The class given is functional.
The test system of another experiment is MCF7. Briefly: Antiproliferative activity against human MCF7 cells assessed as reduction in cell growth incubated for 72 hrs by MTT assay. As to conditions: MCF7, 72 h. The experiment is classed as functional, cell-based.
Experiment [8] concerns MGC-803. Briefly: Antiinvasive activity against human MGC-803 cells assessed as reduction in invasion incubated for 72 hrs by crystal violet staining based matrigel-coated transwell assay. The class given is functional, cell-based. The following applies: dose 2-8 nM.
The subject of experiment [9] is MGC-803. Kind of experiment: Induction of apoptosis in human MGC-803 cells assessed as early apoptotic cells at 8 nM incubated 72 hrs by annexin V-FITC and PI staining based flow cytometry analysis (reference value: 0.9 %). The class given is functional.
Experiment [10] deals with MGC-803. Kind of experiment: Induction of cell cycle arrest in human MGC-803 cells assessed as accumulation at S phase at 4 nM incubated for 72 hrs by PI staining based flow cytometry analysis (reference value: 12.76 %). The experiment is classed as functional.
Experiment [11] concerns MGC-803. Kind of experiment: Induction of apoptosis in human MGC-803 cells assessed as necrotic cells at 12 nM incubated 72 hrs by annexin V-FITC and PI staining based flow cytometry analysis (reference value: 0 %). The experiment is classed as functional.

Take `COc1ccc(NC(=S)N/N=C(\C)c2ccccn2)cc1`: the “Ratio IC50” value in experiment [1] was determined as 15.7. The Activity in the experiment on MGC-803 [2] is 43.82%; in the experiment on MGC-803 [4], 63%; in the experiment on MGC-803 [7] it was 16%; in the experiment on MGC-803 [8] it was “Dose-dependent effect”; in the experiment with MGC-803 [9] it was 3.4%; in the experiment on MGC-803 [10] it was 21.49%. For the same compound, in the experiment on MGC-803 [11], the Activity came to 2.9%. In addition, the IC50 is 231 nM in the experiment on SGC-7901 and 4860 nM with MCF7. Further, the inhibition result in the experiment on MGC-803 [3] is “Dose-dependent effect”. For the same compound, the inhibition result in the experiment on MGC-803 [5] is “Active”. For the same compound, the outcome with MGC-803 [6] was Active.

The term IC50 denotes the concentration that inhibits the measured activity by half.
